# Measured values taken from patent publication US7452865B2, “Antagonistic analogs of GH RH (2003)” (The Administrare's of the Tulane Educational Fund, priority 2004, dated 2008).
# Marks after values point to notes of the source that are not given here. Square brackets hold non-standard residues; d marks the D form. Peptide text beside a SMILES is read from it. * marks the point of attachment. Phe(4-Cl) = N[C@@H](Cc1ccc(Cl)cc1)C(=O)O; hArg = N=C(N)NCCCC[C@H](N)C(=O)O; Nle = CCCC[C@H](N)C(=O)O; Abu = CC[C@H](N)C(=O)O; PhAc = O=C(Cc1ccccc1)*
# Columns and labels:
# [1] = system: PC-3 human prostate cancer xenografts; assay: PC-3 xenografts in nude mice, Experiment 2: tumor growth; format: in vivo
# Protocol: (§1) Male nude mice were implanted s.c. with 3 mm^3 pieces of PC-3 human hormone-independent prostate cancer tissue on both flanks. When tumors reached a volume of approx. 50 mm^3, the mice were divided into 5 experimental groups with 7 to 8 animals in each group and received single daily injections for 28 days as follows: 1. Control (vehicle solution); 2. JV-1-38 (10 μg/day s.c.); 3 Peptide 31 (10 μg/day s.c.); 4. Peptide 67 (10 μg/day s.c.); 5. Peptide 62 (10 μg/day s.c.). Tumor volumes were measured twice a week. The experiment was ended on day 29 by sacrificing the mice under Isoflurane anesthesia. Resulting tumors were cleaned, weighed, and snap-frozen until further analyses. Trunk blood was collected from the abdominal aorta and serum was separated for RIA measurement of IGF-I. Statistical analyses of the measurement results were done by two-tailed t-test; data are presented as the means±S.E.
# (§2) Experiment 2 was similar to Experiment 1, with the difference that Experiment 2 was started when PC-3 tumors had grown to approximately 30 mm^3 in volume. At this time, the animals were divided into 8 experimental groups with 8 animals in each group, and received single daily injections for 28 days as follows. 1. Control (vehicle solution); 2. JV-1-38 (10 μg/day s.c.); 3. Peptide 46 (5 μg/day: s.c.); 4. Peptide 77 (5 μg/day s.c); 5. Peptide 76 (5 μg/day s.c.); 6. Peptide 70 (5 μg/day s.c.); 7 Peptide 79 (5 μg/day s.c.); 8. Peptide 80 (5 μg/day s.c.). Further details of Experiment 2 are the same as for Experiment 1.
# [2] = system: PC-3 human prostate cancer xenografts; assay: PC-3 xenografts in nude mice, Experiment 3: tumor growth; format: in vivo
# Protocol: Male nude mice were implanted s.c. with 3 mm^3 pieces of PC-3 human hormone-independent prostate cancer tissue on both flanks. When tumors reached a volume of approximately 65 mm^3, the mice were divided into 7 experimental groups with 8 to 9 animals in each group and received single daily injections for 28 days as follows: 1. Control (vehicle solution); 2. JV-1-38 (10 μg/day s.c.); 3. Peptide 35 (10 μg/day s.c.); 4. Peptide 36 (10 μg/day s.c.); 5. Peptide 37 (10 μd/day s.c.); 6. Peptide 39 (10 μg/day s.c.); 7. Peptide 41 (10 μg/day s.c.). Tumor volumes were measured twice a week. The experiment was ended on day 28 by sacrificing the mice under Isofurane anesthesia. Resulting tumors were cleaned, weighed, and snapfrozen until further analyses. Trunk blood was collected from the abdominal aorta and serum was separated for RIA measurement of IGF-I. Statistical analyses of the measurement results were done by ANOVA followed by Fisher test; data are presented as the means±S.E.
# IGF-I [3] = assay: PC-3 xenografts, Experiment 1: serum IGF-I (RIA); format: in vivo, nude mice; conditions: 10 μg/day s.c., 28 days
# Description: (§3) For the measurement of GH and IGF-I levels in the serum, as well as IGF-I and IGF-II concentrations in the cytosol fraction of tumors, blood samples and tumor samples were collected and processed as described (Braczkowski R, Schally A V, Plonowski A, Varga J L, Groot K, Krupa M, Armatis P, Cancer 95: 1735-1745, 2002), hereby incorporated by reference. Briefly, blood samples are centrifuged to separate the serum, tumors are homogenized and centrifuged to separate the cytosol fraction. Serum GH is then measured by the double-antibody RIA method. Before measurement by RIA, IGF-I and IGF-II are extracted from serum and cytosol fractions using an acid-ethanol cryoprecipitation method that eliminates most of the IGF binding proteins, which can interfere with the RIA. IGF-I concentration is measured by RIA using IGF-I as a standard and goat anti-IGF-I antibody (both from DSL Inc., Webster, Tex.). IGF-II concentration is measured by RIA using human recombinant IGF-II (Bachem) as a standard and anti-IGF-II monoclonal antibody (Amano International Enzyme, Troy, Va.).
# as §1
# IGF-I [4] = assay: PC-3 xenografts, Experiment 2: serum IGF-I (RIA); format: in vivo, nude mice; conditions: 10 μg/day s.c., 28 days
# Description: as §3, §1, §2
# IGF-II = assay: PC-3 xenografts, Experiment 1: tumor IGF-II (RIA); format: in vivo, nude mice; conditions: 10 μg/day s.c., 28 days
# Description: as §3, §1
# [5] = system: PC-3 human prostate cancer xenografts; assay: PC-3 xenografts in nude mice, Experiment 1: tumor growth; format: in vivo
# Protocol: as §1
# [6] = system: hGH-RH(1-29)NH2 induced GH release; assay: Inhibition of GH release in superfused rat pituitary system; format: cell-based; conditions: antagonist 30 nM
# Method in brief: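 Dispersed rat pituitary cells in superfusion were preincubated 9 min with analog at various concentrations, then stimulated with 1 nM hGH-RH(1-29)NH2 for 3 min, repeated at 30, 60, 90, 120 min to gauge duration. GH measured by double-antibody RIA; net integrated responses expressed as percent of the initial 1 nM GH-RH response.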
# [7] = 10 μg/day s.c., 28 days, vs control
compound,measurement,setting,value
"CCCC[C@H](NC(=O)[C@@H](NC(=O)[C@H](CC(=O)O)NC(=O)[C@H](CCC(N)=O)NC(=O)[C@H](CC(C)C)NC(=O)[C@H](CC(C)C)NC(=O)[C@H](CCCCN)NC(=O)[C@H](CCCNC(=N)N)NC(=O)[C@H](C)NC(=O)[C@H](CO)NC(=O)[C@H](CC(C)C)NC(=O)[C@H](CCC(N)=O)NC(=O)[C@H](CC)NC(=O)[C@H](CC(C)C)NC(=O)[C@@H](NC(=O)[C@H](CCCCN)NC(=O)[C@H](CCCNC(=N)N)NC(=O)[C@H](Cc1ccc(OC)cc1)NC(=O)[C@H](CCCCNC(=N)N)NC(=O)[C@H](CC(N)=O)NC(=O)[C@@H](NC(=O)[C@H](Cc1ccc(Cl)cc1)NC(=O)[C@@H](NC(=O)[C@H](C)NC(=O)[C@H](CC(=O)O)NC(=O)[C@@H](CCCNC(=N)N)NC(=O)[C@H](Cc1ccc(O)cc1)NC(=O)Cc1ccccc1)[C@@H](C)CC)[C@@H](C)O)C(C)C)[C@@H](C)CC)C(=O)N[C@H](CCCNC(=N)N)C(=O)N[C@@H](CCCCNC(=N)N)C(N)=O [JV-1-38, reference compound] (PhAc-Y[dR]DAI[Phe(4-Cl)]TN[hArg]Y(Me)RKVL[Abu]QLSARKLLQDI[Nle][dR][hArg]-NH2; N-terminus and C-terminus assumed)",Tumor volume (mm^3) Initial,"[1]; 10 μg/day group, at start of treatment",29.3 ± 3.8 mm^3
same,Tumor volume (mm^3) Final,"[1]; 10 μg/day s.c., 28 days",351 ± 72.9 mm^3
same,Tumor volume doubling time,"[1]; 10 μg/day s.c., 28 days",8.7 ± 0.7 days
same,Tumor weight,"[1]; 10 μg/day s.c., 28 days",254 ± 52.0 mg
same,Tumor volume Final (% inhibition),[1]; [7],(0%)
same,Tumor volume (mm^3) Final,"[2]; 10 μg/day s.c., 28 days",276 ± 48.7** mm^3
same,Tumor volume doubling time,"[2]; 10 μg/day s.c., 28 days",18.2 ± 1.84 days
same,Tumor weight,"[2]; 10 μg/day s.c., 28 days",386 ± 62.9 mg
same,Tumor volume Final (% inhibition),[2]; [7],(66%)
same,Tumor weight (% inhibition),[2]; [7],(45%)
same,Tumor volume (mm^3) Initial,[2]; at start of treatment,68.3 ± 8.08 mm^3
same,Serum IGF-I,IGF-I [3],147 ± 8.49 ng/mL
same,Serum IGF-I (% inhibition),IGF-I [3]; vs control,(1%)
same,Serum IGF-I,IGF-I [4],293 ± 28.0 ng/mL
same,Tumor IGF-II (pg/mg protein),IGF-II,208 ± 43.3 pg/mg protein
same,Tumor IGF-II (% inhibition),IGF-II; vs control,(5%)
same,Tumor volume (mm^3) Final,"[5]; 10 μg/day s.c., 28 days",291 ± 80.4 mm^3
same,Tumor volume doubling time,"[5]; 10 μg/day s.c., 28 days",12.3 ± 1.04 days
same,Tumor weight,"[5]; 10 μg/day s.c., 28 days",239 ± 58.0 mg
same,Tumor volume Final (% inhibition),[5]; [7],(42%)
same,Tumor weight (% inhibition),[5]; [7],(37%)
same,Tumor volume (mm^3) Initial,[5]; at start of treatment,49.2 ± 8.37 mm^3
same,GH response (% of control) 0 min,[6]; 1 nM hGH-RH(1-29)NH2 at 0 min,59 % of control
same,GH response (% of control) 30 min,[6]; 1 nM hGH-RH(1-29)NH2 at 30 min,32 % of control
same,GH response (% of control) 60 min,[6]; 1 nM hGH-RH(1-29)NH2 at 60 min,28 % of control
same,GH response (% of control) 90 min,[6]; 1 nM hGH-RH(1-29)NH2 at 90 min,34 % of control
same,GH response (% of control) 120 min,[6]; 1 nM hGH-RH(1-29)NH2 at 120 min,31 % of control
